± gives the expanded uncertainty stated by the source.
Tests used:
[1] = refractive index (Na D-line) (dimensionless); mn = molality of the nth substance listed, in mol/kg; settings: 298.15 K, 101 kPa, Liquid, Standard Abbe refractometry
[2] = mn = molality of the nth substance listed, in mol/kg; settings: 298.15 K, 101 kPa, Liquid, Vibrating tube method

CC(=O)NCCCCCCNC(C)=O [N,N'-diacetyl-1,6-hexanediamine] + O
refractive index ([1]; m1 = 0.1): 1.3348 ± 0.0009 | refractive index ([1]; m1 = 0.15): 1.3363 ± 0.0009 | refractive index ([1]; m1 = 0.2): 1.3382 ± 0.0009 | refractive index ([1]; m1 = 0.25): 1.3393 ± 0.0009 | refractive index ([1]; m1 = 0.3): 1.3409 ± 0.0009 | refractive index ([1]; m1 = 0.35): 1.3419 ± 0.0009 | refractive index ([1]; m1 = 0.4): 1.3431 ± 0.0009 | mass density ([2]; m1 = 0.1): 997.981 ± 1.1 kg/m3 | mass density ([2]; m1 = 0.15): 998.443 ± 1.1 kg/m3 | mass density ([2]; m1 = 0.2): 998.931 ± 1.1 kg/m3 | mass density ([2]; m1 = 0.25): 999.413 ± 1.1 kg/m3 | mass density ([2]; m1 = 0.3): 999.901 ± 1.1 kg/m3 | mass density ([2]; m1 = 0.35): 1000.37 ± 1.1 kg/m3 | mass density ([2]; m1 = 0.4): 1000.88 ± 1.1 kg/m3

OC[C@@H](O)[C@H](O)[C@@H](O)CO [xylitol] + O
refractive index ([1]; m1 = 0.1): 1.3341 ± 0.0009 | refractive index ([1]; m1 = 0.2): 1.3361 ± 0.0009 | refractive index ([1]; m1 = 0.3): 1.3382 ± 0.0009 | refractive index ([1]; m1 = 0.5): 1.3423 ± 0.0009 | refractive index ([1]; m1 = 0.7): 1.346 ± 0.0009 | refractive index ([1]; m1 = 0.9): 1.3494 ± 0.0009 | mass density ([2]; m1 = 0.1): 1002 ± 1.1 kg/m3 | mass density ([2]; m1 = 0.2): 1006.92 ± 1.1 kg/m3 | mass density ([2]; m1 = 0.3): 1011.76 ± 1.1 kg/m3 | mass density ([2]; m1 = 0.5): 1020.96 ± 1.1 kg/m3 | mass density ([2]; m1 = 0.7): 1029.87 ± 1.1 kg/m3 | mass density ([2]; m1 = 0.9): 1038.33 ± 1.1 kg/m3

OC[C@@H](O)[C@@H](O)[C@H](O)[C@H](O)CO [D-mannitol] + O
refractive index ([1]; m1 = 0.1): 1.3349 ± 0.0009 | refractive index ([1]; m1 = 0.2): 1.3367 ± 0.0009 | refractive index ([1]; m1 = 0.3): 1.3398 ± 0.0009 | refractive index ([1]; m1 = 0.5): 1.344 ± 0.0009 | refractive index ([1]; m1 = 0.7): 1.349 ± 0.0009 | refractive index ([1]; m1 = 0.9): 1.3532 ± 0.0009 | mass density ([2]; m1 = 0.1): 1003.27 ± 1 kg/m3 | mass density ([2]; m1 = 0.2): 1009.2 ± 1 kg/m3 | mass density ([2]; m1 = 0.3): 1015.29 ± 1 kg/m3 | mass density ([2]; m1 = 0.5): 1026.51 ± 1 kg/m3 | mass density ([2]; m1 = 0.7): 1037.43 ± 1 kg/m3 | mass density ([2]; m1 = 0.9): 1047.8 ± 1 kg/m3
